In PubChem BioAssay AID1963843 (Molecular Pharmacology Branch, DTP, NCI, 2024):
pIC50: −log10 of the molar value.

System: 616215-338-R-J1-PDC complex spheroid viability
Assay: Anticancer human tumor 616215-338-R-J1-PDC patient-derived colon adenocarcinoma cell line growth inhibition [POLQ]
Settings: for pIC50: curve of first compound; for viability, T/C: stronger effect = lower value
Outline: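 Complex spheroid viability model combining PDC tumour cells with endothelial (HUVEC) and MSC stromal cells. Novobiocin, ART-558 or RP6685 were tested singly and in combination with standard and investigational anticancer drugs. Each was titrated in half-log steps from near clinical Cmax, or from 10 microM where Cmax was unknown.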

[1] = second compound 0.0316 µM, first compound 0.0316 µM
[2] = second compound 0.0316 µM, first compound 0.1 µM
[3] = second compound 0.0316 µM, first compound 0.316 µM
[4] = second compound 0.0316 µM, first compound 1 µM
[5] = second compound 0.0316 µM, first compound 3.16 µM
[6] = second compound 0.0316 µM, first compound 10 µM
[7] = second compound 0.1 µM, first compound 0.0316 µM
[8] = second compound 0.1 µM, first compound 0.1 µM
[9] = second compound 0.1 µM, first compound 0.316 µM
[10] = second compound 0.1 µM, first compound 1 µM
[11] = second compound 0.1 µM, first compound 3.16 µM
[12] = second compound 0.1 µM, first compound 10 µM
[13] = second compound 0.316 µM, first compound 0.0316 µM
[14] = second compound 0.316 µM, first compound 0.1 µM
[15] = second compound 0.316 µM, first compound 0.316 µM
[16] = second compound 0.316 µM, first compound 1 µM
[17] = second compound 0.316 µM, first compound 3.16 µM
[18] = second compound 0.316 µM, first compound 10 µM
[19] = second compound 1 µM, first compound 0.0316 µM
[20] = second compound 1 µM, first compound 0.1 µM
[21] = second compound 1 µM, first compound 0.316 µM
[22] = second compound 1 µM, first compound 1 µM
[23] = second compound 1 µM, first compound 3.16 µM
[24] = second compound 1 µM, first compound 10 µM
[25] = second compound 3.16 µM, first compound 0.0316 µM
[26] = second compound 3.16 µM, first compound 0.1 µM
[27] = second compound 3.16 µM, first compound 0.316 µM
[28] = second compound 3.16 µM, first compound 1 µM
[29] = second compound 3.16 µM, first compound 3.16 µM
[30] = second compound 3.16 µM, first compound 10 µM
[31] = second compound 10 µM, first compound 0.0316 µM
[32] = second compound 10 µM, first compound 0.1 µM
[33] = second compound 10 µM, first compound 0.316 µM
[34] = second compound 10 µM, first compound 1 µM
[35] = second compound 10 µM, first compound 3.16 µM
[36] = second compound 10 µM, first compound 10 µM
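Further: spheroids exposed to compounds for one week before readout.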
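Wherever viability, T/C is given: percent viability relative to DMSO vehicle wells taken as 100%.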

CCc1cc2c(N3CCc4c(cc(Cn5ccnc5)cc4-c4cn(C)nc4C(F)(F)F)C3=O)cc(C)nc2c(OC)n1 + Nc1ccc(C#CCN(C(=O)Cc2ncc(C(F)(F)F)cc2C(F)(F)F)c2ccc(F)cc2)nn1
pIC50 (second compound 0.0316 µM): 5.60 | pIC50 (second compound 0.1 µM): 5.53 | pIC50 (second compound 0.316 µM): 5.61 | pIC50 (second compound 1 µM): 5.62 | pIC50 (second compound 3.16 µM): 5.58 | pIC50 (second compound 10 µM): 5.85 | viability, T/C [1]: 106% | viability, T/C [2]: 108% | viability, T/C [3]: 80.2% | viability, T/C [4]: 62% | viability, T/C [5]: 51% | viability, T/C [6]: 38.5% | viability, T/C [7]: 123% | viability, T/C [8]: 101% | viability, T/C [9]: 68.7% | viability, T/C [10]: 60.9% | viability, T/C [11]: 54.3% | viability, T/C [12]: 40% | viability, T/C [13]: 105% | viability, T/C [14]: 111% | viability, T/C [15]: 75.8% | viability, T/C [16]: 61.5% | viability, T/C [17]: 51.5% | viability, T/C [18]: 40.1% | viability, T/C [19]: 115% | viability, T/C [20]: 108% | viability, T/C [21]: 91.5% | viability, T/C [22]: 57% | viability, T/C [23]: 51.8% | viability, T/C [24]: 41.9% | viability, T/C [25]: 112% | viability, T/C [26]: 111% | viability, T/C [27]: 78.2% | viability, T/C [28]: 63.6% | viability, T/C [29]: 51.1% | viability, T/C [30]: 38.4% | viability, T/C [31]: 99.4% | viability, T/C [32]: 98.2% | viability, T/C [33]: 74.9% | viability, T/C [34]: 53.3% | viability, T/C [35]: 45.8% | viability, T/C [36]: 41.4%

CCc1cc2c(N3CCc4c(cc(Cn5ccnc5)cc4-c4cn(C)nc4C(F)(F)F)C3=O)ccnc2c(OC)n1 + Nc1ccc(C#CCN(C(=O)Cc2ncc(C(F)(F)F)cc2C(F)(F)F)c2ccc(F)cc2)nn1
pIC50 (second compound 0.0316 µM): < 5.00 | pIC50 (second compound 0.1 µM): 5.19 | pIC50 (second compound 0.316 µM): 5.28 | pIC50 (second compound 1 µM): 5.51 | pIC50 (second compound 3.16 µM): 5.36 | pIC50 (second compound 10 µM): 5.57 | viability, T/C [1]: 118% | viability, T/C [2]: 111% | viability, T/C [3]: 95.6% | viability, T/C [4]: 56.6% | viability, T/C [5]: 54.1% | viability, T/C [6]: 49.1% | viability, T/C [7]: 117% | viability, T/C [8]: 120% | viability, T/C [9]: 88.8% | viability, T/C [10]: 66.8% | viability, T/C [11]: 55.8% | viability, T/C [12]: 45.4% | viability, T/C [13]: 121% | viability, T/C [14]: 113% | viability, T/C [15]: 98.9% | viability, T/C [16]: 64.7% | viability, T/C [17]: 53.6% | viability, T/C [18]: 46.9% | viability, T/C [19]: 111% | viability, T/C [20]: 107% | viability, T/C [21]: 94.9% | viability, T/C [22]: 56.2% | viability, T/C [23]: 63.8% | viability, T/C [24]: 37.3% | viability, T/C [25]: 115% | viability, T/C [26]: 110% | viability, T/C [27]: 98% | viability, T/C [28]: 70.8% | viability, T/C [29]: 56.4% | viability, T/C [30]: 40.4% | viability, T/C [31]: 100% | viability, T/C [32]: 104% | viability, T/C [33]: 95.3% | viability, T/C [34]: 68.4% | viability, T/C [35]: 48.6% | viability, T/C [36]: 40.4%

COc1cc2cc(C(=O)CCC(=O)O)sc2cc1OC + Nc1ccc(C#CCN(C(=O)Cc2ncc(C(F)(F)F)cc2C(F)(F)F)c2ccc(F)cc2)nn1
pIC50 (second compound 0.0316 µM): < 5.00 | pIC50 (second compound 0.1 µM): < 5.00 | pIC50 (second compound 0.316 µM): < 5.00 | pIC50 (second compound 1 µM): < 5.00 | pIC50 (second compound 3.16 µM): < 5.00 | pIC50 (second compound 10 µM): < 5.00 | viability, T/C [1]: 109% | viability, T/C [2]: 105% | viability, T/C [3]: 110% | viability, T/C [4]: 108% | viability, T/C [5]: 109% | viability, T/C [6]: 102% | viability, T/C [7]: 108% | viability, T/C [8]: 106% | viability, T/C [9]: 117% | viability, T/C [10]: 104% | viability, T/C [11]: 119% | viability, T/C [12]: 108% | viability, T/C [13]: 112% | viability, T/C [14]: 108% | viability, T/C [15]: 105% | viability, T/C [16]: 108% | viability, T/C [17]: 113% | viability, T/C [18]: 99.9% | viability, T/C [19]: 110% | viability, T/C [20]: 102% | viability, T/C [21]: 101% | viability, T/C [22]: 113% | viability, T/C [23]: 115% | viability, T/C [24]: 102% | viability, T/C [25]: 108% | viability, T/C [26]: 101% | viability, T/C [27]: 108% | viability, T/C [28]: 103% | viability, T/C [29]: 107% | viability, T/C [30]: 101% | viability, T/C [31]: 95.3% | viability, T/C [32]: 91.1% | viability, T/C [33]: 86.8% | viability, T/C [34]: 97.2% | viability, T/C [35]: 89.3% | viability, T/C [36]: 79.2%

O=C(Nc1ccc(O)c(NS(=O)(=O)c2ccc(F)cc2)c1)c1ccc(-c2ccccc2)cc1 + Nc1ccc(C#CCN(C(=O)Cc2ncc(C(F)(F)F)cc2C(F)(F)F)c2ccc(F)cc2)nn1
pIC50 (second compound 0.0316 µM): 5.00 | pIC50 (second compound 0.1 µM): < 5.00 | pIC50 (second compound 0.316 µM): < 5.00 | pIC50 (second compound 1 µM): < 5.00 | pIC50 (second compound 3.16 µM): < 5.00 | pIC50 (second compound 10 µM): 5.18 | viability, T/C [1]: 108% | viability, T/C [2]: 105% | viability, T/C [3]: 105% | viability, T/C [4]: 104% | viability, T/C [5]: 119% | viability, T/C [6]: 49.7% | viability, T/C [7]: 108% | viability, T/C [8]: 105% | viability, T/C [9]: 114% | viability, T/C [10]: 105% | viability, T/C [11]: 100% | viability, T/C [12]: 56% | viability, T/C [13]: 108% | viability, T/C [14]: 107% | viability, T/C [15]: 103% | viability, T/C [16]: 104% | viability, T/C [17]: 96.6% | viability, T/C [18]: 72.6% | viability, T/C [19]: 105% | viability, T/C [20]: 106% | viability, T/C [21]: 106% | viability, T/C [22]: 101% | viability, T/C [23]: 91.2% | viability, T/C [24]: 54% | viability, T/C [25]: 106% | viability, T/C [26]: 103% | viability, T/C [27]: 102% | viability, T/C [28]: 102% | viability, T/C [29]: 76.5% | viability, T/C [30]: 50.7% | viability, T/C [31]: 93.9% | viability, T/C [32]: 84.2% | viability, T/C [33]: 93.2% | viability, T/C [34]: 105% | viability, T/C [35]: 85.8% | viability, T/C [36]: 29.3%
